Results on three compounds are retold here after publication PMC9828418 (Angewandte Chemie (International Ed. in English), 2022).

The conditions of data set [1]: 0.6 M NaClO4, 25 °C; cited from earlier work.
Data set [2] is classed as physicochemical. The conditions noted are these: 0.15 M NaClO4, 25 °C.
A short description of data set [3]: Protonation constants of Bi^III complexes by pH-potentiometry. Format: physicochemical. As to conditions: 0.15 M NaClO4, 25 °C.

Each structure is given as a SMILES string. Read-outs that look alike come from different tables or passages of the source.

As for `O=C([O-])CN(CCN(CC(=O)[O-])CC(=O)[O-])CCN(CC(=O)[O-])CC(=O)[O-].[Bi+3]` [[Bi(DTPA)]^2−], in data set [1], the “logK BiL (stability constant)” value is given as 29.29.

Regarding `CC1(N(CC(=O)[O-])CC(=O)[O-])CN(CC(=O)[O-])CCN(CC(=O)[O-])C1.[Bi+3]` [[Bi(AAZTA)]^−], the figures for the “logK BiL (stability constant)” value in data set [2] and in data set [2] (listed as A) were 26.45 and 26.45(6), respectively. In data set [3], the “logK Bi(HL) (protonation constant of complex)” value is 1.63(3).

As to `O=C([O-])CCCCC1(N(CC(=O)[O-])CC(=O)[O-])CN(CC(=O)[O-])CCN(CC(=O)[O-])C1.[Bi+3]` [[Bi(AAZTA‐C4‐COO^−)]^2−], the “logK BiL (stability constant)” value in data set [2] is 28.75; in data set [2] (listed as B), 28.75(8). In data set [3], the “logK Bi(HL) (protonation constant of complex)” value is 4.74(4).
